# Test results reported in US9296776B2, “Substituted nucleoside derivatives with antiviral and antimicrobial properties” (Eastern Virginia Medical School, priority 2007, dated 2016).
# Tests used:
# Type in all cases: cell-based
# [1] = system: HIV-1 IIIB (cell-free virus); assay: microbe, parasite or virus in culture; settings: for EC50 Cell-free HIV-1 (IIIB) / EC50: Table 8; for EC50 Cell-free HIV-1 (IIIB) / EC50 / IC50 / IC50 Cell-Free Virus IIIB: 2 h incubation, wash, 48 h culture; for EC50: read-out: EC50 Cell-free HIV-1 (IIIB); for IC50: Human immunodeficiency virus 1, IIIB, read-out: IC50 Cell-Free Virus IIIB; for IC50 / IC50 Cell-Free Virus IIIB: Table 1; for EC50 Cell-Free Virus IIIB: Table 6
# [2] = system: HIV-1 BaL (cell-free virus); assay: Single-round infection assay, cell-free virus BaL; settings: for IC50: Human immunodeficiency virus 1, BAL, read-out: IC50 Cell-Free Virus BaL; for IC50 / IC50 Cell-Free Virus BaL: Table 1, 2 h incubation, wash, 48 h culture; for EC50 Cell-Free Virus BaL: Table 6
# [3] = system: Cell-associated HIV-1, SupT1 (IIIB); assay: Single-round infection assay, cell-associated virus SupT1 (IIIB); settings: Table 1, 2 h incubation, wash, 48 h culture; for IC50: Human immunodeficiency virus 1, IIIB, SUP-T1, read-out: IC50 Cell-Associated Virus SupT1 (IIIB)
molecule,measurement,setting,value
"Cc1cn([C@H]2C[C@H](F)[C@@H](COC(=O)CCC(=O)OC[C@H]3O[C@@H](n4cc(C)c(=O)[nH]c4=O)C[C@@H]3F)O2)c(=O)[nH]c1=O [KPH-912, FLT-succinate-FLT]",EC50 Cell-free HIV-1 (IIIB),[1],2.1 µg/mL
same,EC50,[1],3700 nM
"CCCCCCCCCCCCCC(=O)Nc1ccn([C@H]2CS[C@@H](CO)O2)c(=O)n1 [N4-tetradecanoyl-2′,3′-dideoxy-3′-thiacytidine]",IC50,[2],0.3 µg/mL
same,IC50,[3],0.3 µg/mL
same,IC50,[1],4.8 µg/mL
"[N-]=[N+]=NCCCCCCCCCCCC(=O)OC[C@H]1O[C@@H](n2cc(F)c(N)nc2=O)CS1 [5′-O-(12-azidododecanoyl)-2′,3′-dideoxy-5-fluoro-3′-thiacytidine]",IC50,[2],0.11 µg/mL
same,IC50,[3],4.3 µg/mL
same,IC50,[1],0.39 µg/mL
"Suramin-3′-fluoro-2′,3′-dideoxythymidine [Suramin-FLT]",EC50 Cell-Free Virus BaL,[2],6.2 µg/mL
same,EC50 Cell-Free Virus IIIB,[1],23.6 µg/mL
"[N-]=[N+]=NCCCCCCCCCCCC(=O)OC[C@H]1O[C@@H](n2ccc(N)nc2=O)CS1 [5′-O-(12-azidododecanoyl)-2′,3′-dideoxy-3′-thiacytidine]",IC50,[2],0.08 µg/mL
same,IC50,[3],> 100 µg/mL
same,IC50,[1],0.88 µg/mL
"CCCCCCCCCCCCCC(=O)OC[C@@H]1C=C[C@H](n2cc(C)c(=O)[nH]c2=O)O1 [5′-O-myristoyl-2′,3′-didehydro-2′,3′-dideoxythymidine]",IC50 Cell-Free Virus BaL,[2],5.4 µg/mL
same,IC50 Cell-Associated Virus SupT1 (IIIB),[3],>100 µg/mL
same,IC50 Cell-Free Virus IIIB,[1],34 µg/mL
"CCSCCCCCCCCCCCC(=O)OC[C@H]1O[C@@H](n2ccc(N)nc2=O)CS1 [5′-O-(13-thiapentadecanoyl)-2′,3′-dideoxy-3′-thiacytidine]",IC50,[2],< 0.1 µg/mL
same,IC50,[3],> 100 µg/mL
same,IC50,[1],1.1 µg/mL
CCCCCCCCCCCCCC(=O)NC(CCC(=O)OC[C@H]1O[C@@H](n2cc(C)c(=O)[nH]c2=O)C[C@@H]1F)C(=O)OC[C@H]1O[C@@H](n2cc(C)c(=O)[nH]c2=O)C[C@@H]1N=[N+]=[N-] (some centres unmarked) [KPH-99],EC50 Cell-free HIV-1 (IIIB),[1],2.0 µg/mL
same,EC50,[1],2400 nM
"CCSCCCCCCCCCCCC(=O)Nc1ccn([C@H]2CS[C@@H](CO)O2)c(=O)n1 [N4-(13-thiapentadecanoyl)-2′,3′-dideoxy-3′-thiacytidine]",IC50,[2],0.2 µg/mL
same,IC50,[3],> 100 µg/mL
same,IC50,[1],2.5 µg/mL
CCCCCCCCCCCCCC(=O)NC(CCC(=O)OC[C@H]1O[C@@H](n2cc(C)c(=O)[nH]c2=O)C[C@@H]1F)C(=O)OC[C@@H]1O[C@H](n2ccc(N)nc2=O)CS1 (some centres unmarked) [KPH-97],EC50 Cell-free HIV-1 (IIIB),[1],1.6 µg/mL
same,EC50,[1],2000 nM
"[N-]=[N+]=NCCCCCCCCCCCC(=O)Nc1ccn([C@H]2CS[C@@H](CO)O2)c(=O)n1 [N4-(12-azidodecanoyl)-2′,3′-dideoxy-3′-thiacytidine]",IC50 Cell-Free Virus BaL,[2],1.7 µg/mL
same,IC50 Cell-Associated Virus SupT1 (IIIB),[3],6.6 µg/mL
same,IC50 Cell-Free Virus IIIB,[1],13.3 µg/mL
"CC(=O)NC(CCC(=O)OC[C@H]1O[C@@H](n2cc(C)c(=O)[nH]c2=O)C[C@@H]1F)C(=O)OC[C@@H]1O[C@H](n2ccc(N)nc2=O)CS1 (some centres unmarked) [KPH-96, FLT(Glutamyl)-3TC]",EC50 Cell-free HIV-1 (IIIB),[1],10.7 µg/mL
same,EC50,[1],17100 nM
"[N-]=[N+]=NCCCCCCCCCCCC(=O)Nc1ccn(C2CSC(COC(=O)CCCCCCCCCCCN=[N+]=[N-])O2)c(=O)n1 (centres unmarked) [N4, 5′-O-di(12-azidodecanoyl)-2′,3′-dideoxy-3′-thiacytidine]",IC50 Cell-Free Virus BaL,[2],49.1 µg/mL
same,IC50 Cell-Associated Virus SupT1 (IIIB),[3],>100 µg/mL
same,IC50 Cell-Free Virus IIIB,[1],>100 µg/mL
"CCSCCCCCCCCCCCC(=O)OC[C@H]1O[C@@H](n2cc(F)c(N)nc2=O)CS1 [5′-O-(13-thiapentadecanoyl)-2′,3′-dideoxy-5-fluoro-3′-thiacytidine]",IC50,[2],0.02 µg/mL
same,IC50,[3],2.4 µg/mL
same,IC50,[1],0.024 µg/mL
"CCCCCCCCCCCCCC(=O)OC[C@H]1O[C@@H](n2cc(F)c(N)nc2=O)CS1 [5′-O-tetradecanoyl-2′,3′-dideoxy-5-fluoro-3′-thiacytidine]",IC50,[2],0.033 µg/mL
same,IC50,[3],1.7 µg/mL
same,IC50,[1],0.056 µg/mL
"Suramin-3′-azido-2′,3′-dideoxythymidine [Suramin-AZT]",EC50 Cell-Free Virus BaL,[2],7.3 µg/mL
same,EC50 Cell-Free Virus IIIB,[1],19.4 µg/mL
"Cc1cn([C@H]2C[C@H](N=[N+]=[N-])[C@@H](COC(=O)CCC(NC(=O)CCC(=O)OC[C@H]3O[C@@H](n4cc(C)c(=O)[nH]c4=O)C[C@@H]3F)C(=O)OC[C@@H]3O[C@H](n4ccc(N)nc4=O)CS3)O2)c(=O)[nH]c1=O (some centres unmarked) [KPH-914, FLT-Succinate-AZT(glutamyl)-3TC]",EC50 Cell-free HIV-1 (IIIB),[1],0.9 µg/mL
same,EC50,[1],960 nM
